In general, DC50 refers to the concentration at which degradation of the target reaches its halfway point.

Molecules are shown by their SMILES. Structures can show the parent of a compound that is named as a salt.

These results are taken from US20240238425A1, “HSD17B13 Inhibitors and/or Degraders” (Pfizer Inc., priority 2022, published 2024).

This assay deals with HiBiT-HSD17β13 fusion protein (N-terminal HiBiT-tagged HSD17β13 isoform D) in Huh7 HiBiT-HSD17β13 OE cells. Briefly: Whole-cell Huh7-HSD17B13 HiBiT assay (degrader potency and maximal efficacy, luminescence readout). Type of assay: cell-based, human. The conditions noted are these: 24 hour incubation, geometric mean, * = geometric mean for all forms tested (parent and salt forms); for DC50: read-out: Huh7_HIBIT-HSD17β13_DC50 GMean DC50; for Huh7_HIBIT-HSD17β13_DC50 GMean Asymptote Maximum: max. concentration 1 μM. In short, it runs like this: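 Huh7 cells stably overexpressing N-terminal HiBiT-tagged HSD17β13 isoform D, clone matched to primary hepatocyte expression, were exposed to an 11-point, 1 in 3.162 dilution series (top 1 μM final) for 24 h at 37° C. Lytic HiBiT luminescence was normalised to DMSO and parental-cell controls; DC50 from four-parameter logistic fit, with CellTiter-Glo counter screen.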

`Cc1sc([C@]23CC[C@](CNC(=O)c4cc(F)c(O)c(F)c4F)(CC2)CC3)nc1-c1ccnc(N2CCN(CCCc3ccc4c(c3)n(C)c(=O)n4C3CCC(=O)NC3=O)CC2)n1` (mixture of isomers) [Example 122, N-{[4-(4-{2-[4-(3-{1-[(3RS)-2,6-dioxopiperidin-3-yl]-3-methyl-2-oxo-2,3-dihydro-1H-benzimidazol-5-yl}propyl)piperazin-1-yl]pyrimidin-4-yl}-5-methyl-1,3-thiazol-2-yl)bicyclo[2.2.2]octan-1-yl]methyl}-2,3,5-trifluoro-4-hydroxybenzamide]: the DC50 worked out at 230 pM and the “Huh7_HIBIT-HSD17β13_DC50 GMean Asymptote Maximum” value is reported as 73%.

`Cn1c(=O)n(C2CCC(=O)NC2=O)c2ccc(CCCN3CCN(c4nc(-c5nc([C@]67CC[C@](CNC(=O)c8cc(F)c(O)c(F)c8F)(CC6)CC7)no5)cc(N5CCOCC5)n4)CC3)cc21` (mixture of isomers) [Example 123, N-{[4-(5-{2-[4-(3-{1-[(3RS)-2,6-dioxopiperidin-3-yl]-3-methyl-2-oxo-2,3-dihydro-1H-benzimidazol-5-yl}propyl)piperazin-1-yl]-6-(morpholin-4-yl)pyrimidin-4-yl}-1,2,4-oxadiazol-3-yl)bicyclo[2.2.2]octan-1-yl]methyl}-2,3,5-trifluoro-4-hydroxybenzamide]: the DC50 amounted to 230 pM and the “Huh7_HIBIT-HSD17β13_DC50 GMean Asymptote Maximum” value is on record as 79%.

Take `COc1c(C(=O)NC[C@]23CC[C@](c4noc(-c5ccnc(N6CCN(CCCc7ccc8c(c7)n(C)c(=O)n8C7CCC(=O)NC7=O)CC6)n5)n4)(CC2)CC3)cc(F)c(O)c1F` (mixture of isomers) [Example 124, N-{[4-(5-{2-[4-(3-{1-[(3RS)-2,6-dioxopiperidin-3-yl]-3-methyl-2-oxo-2,3-dihydro-1H-benzimidazol-5-yl}propyl)piperazin-1-yl]pyrimidin-4-yl}-1,2,4-oxadiazol-3-yl)bicyclo[2.2.2]octan-1-yl]methyl}-3,5-difluoro-4-hydroxy-2-methoxybenzamide, trifluoroacetate salt]: the DC50 was 270 pM and the “Huh7_HIBIT-HSD17β13_DC50 GMean Asymptote Maximum” value came to 72%.

Turning to `Cn1c(=O)n(C2CCC(=O)NC2=O)c2ccc(CCCN3CCN(c4nc(-c5nc([C@]67CC[C@](CNC(=O)c8cc(F)c(O)c(F)c8F)(CC6)CC7)no5)cc(-n5ccnc5)n4)CC3)cc21` (mixture of isomers) [Example 125, N-{[4-(5-{2-[4-(3-{1-[(3RS)-2,6-dioxopiperidin-3-yl]-3-methyl-2-oxo-2,3-dihydro-1H-benzimidazol-5-yl}propyl)piperazin-1-yl]-6-(1H-imidazol-1-yl)pyrimidin-4-yl}-1,2,4-oxadiazol-3-yl)bicyclo[2.2.2]octan-1-yl]methyl}-2,3,5-trifluoro-4-hydroxybenzamide, formate salt], the DC50 is 280 pM and the “Huh7_HIBIT-HSD17β13_DC50 GMean Asymptote Maximum” value was found to be 85%.

As to `COc1nc(-c2ccc3cn([C@H]4CC[C@H](CNC(=O)c5cc(F)c(O)c(F)c5F)CC4)nc3c2)nc2c1CN(CCCc1ccc3c(c1)n(C)c(=O)n3C1CCC(=O)NC1=O)C2` (mixture of isomers) [Example 126, N-{[(1r,4r)-4-{6-[6-(3-{1-[(3RS)-2,6-dioxopiperidin-3-yl]-3-methyl-2-oxo-2,3-dihydro-1H-benzimidazol-5-yl}propyl)-4-methoxy-6,7-dihydro-5H-pyrrolo[3,4-d]pyrimidin-2-yl]-2H-indazol-2-yl}cyclohexyl]methyl}-2,3,5-trifluoro-4-hydroxybenzamide, trifluoroacetate salt], the DC50 turned out to be 360 pM and the “Huh7_HIBIT-HSD17β13_DC50 GMean Asymptote Maximum” value is 84%.

As for `Cn1c(=O)n(C2CCC(=O)NC2=O)c2ccc(CCCN3CCN(c4nc(-c5nc([C@]67CC[C@](CNC(=O)c8cc(F)c(O)c(F)c8F)(CC6)CC7)no5)cc(N5CCCC5)n4)CC3)cc21` (mixture of isomers) [Example 127, N-{[4-(5-{2-[4-(3-{1-[(3RS)-2,6-dioxopiperidin-3-yl]-3-methyl-2-oxo-2,3-dihydro-1H-benzimidazol-5-yl}propyl)piperazin-1-yl]-6-(pyrrolidin-1-yl)pyrimidin-4-yl}-1,2,4-oxadiazol-3-yl)bicyclo[2.2.2]octan-1-yl]methyl}-2,3,5-trifluoro-4-hydroxybenzamide, trifluoroacetate salt], the DC50 is 370 pM and the “Huh7_HIBIT-HSD17β13_DC50 GMean Asymptote Maximum” value was 79%.

On to `COc1cc(-c2nc([C@]34CC[C@](CNC(=O)c5cc(F)c(O)c(F)c5F)(CC3)CC4)no2)nc(N2CCN(CCCc3ccc4c(c3)n(C)c(=O)n4C3CCC(=O)NC3=O)CC2)n1` (mixture of isomers) [Example 128, N-{[4-(5-{2-[4-(3-{1-[(3RS)-2,6-dioxopiperidin-3-yl]-3-methyl-2-oxo-2,3-dihydro-1H-benzimidazol-5-yl}propyl)piperazin-1-yl]-6-methoxypyrimidin-4-yl}-1,2,4-oxadiazol-3-yl)bicyclo[2.2.2]octan-1-yl]methyl}-2,3,5-trifluoro-4-hydroxybenzamide], for which the DC50 is 400 pM and the “Huh7_HIBIT-HSD17β13_DC50 GMean Asymptote Maximum” value was determined as 79%.

On to `Cn1c(=O)n(C2CCC(=O)NC2=O)c2ccc(CCCN3Cc4ccc(-c5ccc6c(C7CC7)n([C@H]7CC[C@H](CNC(=O)c8cc(F)c(O)c(F)c8F)CC7)nc6c5)cc4C3)cc21` (mixture of isomers) [Example 129, N-{[(1r,4r)-4-{3-cyclopropyl-6-[2-(3-{1-[(3RS)-2,6-dioxopiperidin-3-yl]-3-methyl-2-oxo-2,3-dihydro-1H-benzimidazol-5-yl}propyl)-2,3-dihydro-1H-isoindol-5-yl]-2H-indazol-2-yl}cyclohexyl]methyl}-2,3,5-trifluoro-4-hydroxybenzamide, trifluoroacetate salt], for which the DC50 came out at 420 pM and the “Huh7_HIBIT-HSD17β13_DC50 GMean Asymptote Maximum” value is 83%.

For `Cn1c(=O)n(C2CCC(=O)NC2=O)c2ccc(CCCN3CCN(c4cnc(-c5ccn6cc([C@]78CC[C@](CNC(=O)c9cc(F)c(O)c(F)c9F)(CC7)CC8)nc6c5)cn4)CC3)cc21` (mixture of isomers) [Example 130, N-{[4-(7-{5-[4-(3-{1-[(3RS)-2,6-dioxopiperidin-3-yl]-3-methyl-2-oxo-2,3-dihydro-1H-benzimidazol-5-yl}propyl)piperazin-1-yl]pyrazin-2-yl}imidazo[1,2-a]pyridin-2-yl)bicyclo[2.2.2]octan-1-yl]methyl}-2,3,5-trifluoro-4-hydroxybenzamide, trifluoroacetate salt], the DC50 amounted to 500 pM and the “Huh7_HIBIT-HSD17β13_DC50 GMean Asymptote Maximum” value worked out at 83%.

Turning to `O=C1CCC(N2Cc3cc(N4CCC(CCN5CCN(c6nccc(-c7nc([C@]89CC[C@](CNC(=O)c%10cc(F)c(O)c(F)c%10F)(CC8)CC9)no7)n6)CC5)CC4)ccc3C2=O)C(=O)N1` (mixture of isomers) [Example 132, N-({4-[5-(2-{4-[2-(1-{2-[(3RS)-2,6-dioxopiperidin-3-yl]-1-oxo-2,3-dihydro-1H-isoindol-5-yl}piperidin-4-yl)ethyl]piperazin-1-yl}pyrimidin-4-yl)-1,2,4-oxadiazol-3-yl]bicyclo[2.2.2]octan-1-yl}methyl)-2,3,5-trifluoro-4-hydroxybenzamide, trifluoroacetate salt], the DC50 was 1600 pM and the “Huh7_HIBIT-HSD17β13_DC50 GMean Asymptote Maximum” value worked out at 82%.

For `Cn1c(=O)n(C2CCC(=O)NC2=O)c2ccc(CC(C)(C)CN3CCN(c4nccc(-c5nc([C@]67CC[C@](CNC(=O)c8cc(F)c(O)c(F)c8F)(CC6)CC7)no5)n4)CC3)cc21` (mixture of isomers) [Example 134, N-{[4-(5-{2-[4-(3-{1-[(3RS)-2,6-dioxopiperidin-3-yl]-3-methyl-2-oxo-2,3-dihydro-1H-benzimidazol-5-yl}-2,2-dimethylpropyl)piperazin-1-yl]pyrimidin-4-yl}-1,2,4-oxadiazol-3-yl)bicyclo[2.2.2]octan-1-yl]methyl}-2,3,5-trifluoro-4-hydroxybenzamide, trifluoroacetate salt], the DC50 was 6500 pM and the “Huh7_HIBIT-HSD17β13_DC50 GMean Asymptote Maximum” value came to 85%.

As to `O=C1CCN(c2cnn3cc(CCCN4CCO[C@]5(CCN(c6ccc7cn([C@H]8CC[C@H](CNC(=O)c9cc(F)c(O)c(F)c9F)CC8)nc7c6)C5)C4)ccc23)C(=O)N1` (single isomer, unassigned) [Example 30, trifluoroacetate salt], the DC50 is 1700 pM and the “Huh7_HIBIT-HSD17β13_DC50 GMean Asymptote Maximum” value came out at 74%.

Take `Cc1ccc(C(=O)N2CCN(CCOc3ncc(-c4ccc5cn(C6CCC(CNC(=O)c7cc(F)c(O)c(F)c7F)CC6)nc5c4)cn3)CC2)cc1N1CCC(=O)NC1=O.O=C(O)C(F)(F)F` (stereo not shown) [Example 7, N-{[(1r,4r)-4-{6-[2-(2-{4-[3-(2,4-Dioxo-1,3-diazinan-1-yl)-4-methylbenzoyl]piperazin-1-yl}ethoxy)pyrimidin-5-yl]-2H-indazol-2-yl}cyclohexyl]methyl}-2,3,5-trifluoro-4-hydroxybenzamide, trifluoroacetate salt]: the DC50 turned out to be 3000 pM and the “Huh7_HIBIT-HSD17β13_DC50 GMean Asymptote Maximum” value is 78* %.

`Cl.O=C1CCN(c2cnn3cc(CCCN4CCN(c5cnc(-c6ccc7cn([C@H]8CC[C@H](CNC(=O)c9cc(F)c(O)c(F)c9F)CC8)nc7c6)cn5)CC4)ccc23)C(=O)N1` [Example 10, N-{[(1r,4r)-4-{6-[5-(4-{3-[3-(2,4-Dioxo-1,3-diazinan-1-yl)pyrazolo[1,5-a]pyridin-6-yl]propyl}piperazin-1-yl)pyrazin-2-yl]-2H-indazol-2-yl}cyclohexyl]methyl}-2,3,5-trifluoro-4-hydroxybenzamide, hydrochloride salt]: the DC50 was determined as 280 pM and the “Huh7_HIBIT-HSD17β13_DC50 GMean Asymptote Maximum” value stood at 82%.
